How the values were obtained:
NS3 [1] = target: T1, NS3 (Hepatitis C virus, UniProt A3EZJ3); assay: Ability to inhibit the hydrolysis of chromogenic 4-phenylazophenyl ester from the peptide fragment Ac- DTEDVVP(Nva)-O-4-PAP in a HCV protease continuous assay; parameters: species or system Hepacivirus hominis
Neutrophil elastase = target: T2, Neutrophil elastase (Homo sapiens, UniProt P08246); assay: Binding constant towards Human neutrophil elastase HNE protease
T2 sequence (P08246 whole entry): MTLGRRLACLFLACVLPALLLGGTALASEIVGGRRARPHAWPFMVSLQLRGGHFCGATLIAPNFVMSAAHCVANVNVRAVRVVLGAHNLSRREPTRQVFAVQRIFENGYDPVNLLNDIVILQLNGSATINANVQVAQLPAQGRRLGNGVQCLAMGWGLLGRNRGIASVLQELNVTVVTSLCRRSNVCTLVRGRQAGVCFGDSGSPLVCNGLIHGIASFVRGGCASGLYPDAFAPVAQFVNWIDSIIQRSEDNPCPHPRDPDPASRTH

NS3 [2] = target: T1, NS3; assay: Ability to inhibit the hydrolysis of chromogenic […] ester from the peptide fragment Ac- DTEDVVP(Nva)-O-4-PAP in a HCV protease continuous assay; parameters: species or system Hepacivirus hominis

T1 sequence (A3EZJ3 whole entry, the tested form may be a part): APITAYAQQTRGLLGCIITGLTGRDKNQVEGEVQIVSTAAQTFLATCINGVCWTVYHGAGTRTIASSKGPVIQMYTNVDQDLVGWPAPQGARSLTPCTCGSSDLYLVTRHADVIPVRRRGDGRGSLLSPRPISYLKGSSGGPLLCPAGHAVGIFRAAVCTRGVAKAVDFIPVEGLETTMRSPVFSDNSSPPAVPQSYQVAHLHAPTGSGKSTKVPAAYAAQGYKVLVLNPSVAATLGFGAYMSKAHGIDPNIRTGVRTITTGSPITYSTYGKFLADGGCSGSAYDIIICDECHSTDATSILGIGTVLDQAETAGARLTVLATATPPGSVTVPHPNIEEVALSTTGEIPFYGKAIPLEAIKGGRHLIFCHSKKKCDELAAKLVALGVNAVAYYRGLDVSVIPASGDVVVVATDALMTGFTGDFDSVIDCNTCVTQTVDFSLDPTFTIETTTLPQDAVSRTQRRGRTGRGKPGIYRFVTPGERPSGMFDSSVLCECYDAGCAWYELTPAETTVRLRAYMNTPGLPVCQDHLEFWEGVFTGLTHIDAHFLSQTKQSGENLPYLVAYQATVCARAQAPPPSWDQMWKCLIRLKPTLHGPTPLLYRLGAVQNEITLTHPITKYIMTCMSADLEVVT

Row | Ki (NS3 [1]) [nM] | Ki (Neutrophil elastase) [nM] | Ki (NS3 [2]) [nM] | SMILES
1 | 12000 |  |  | CCC[C@H](NC(=O)[C@@H]1Cc2cccc(c2)Oc2ccc(cc2)C[C@H](NC(=O)OC(C)(C)C)C(=O)N[C@@H](C2CCCCC2)C(=O)N1)C(=O)C(=O)NCC(=O)O
2 | 110 | 2900 |  | CCC[C@H](NC(=O)[C@@H]1Cc2cccc(c2)Oc2ccc(cc2)CCC(=O)N[C@@H](C2CCCCC2)C(=O)N1)C(=O)C(=O)NCC(=O)N[C@H](C(=O)O)c1ccccc1
3 | 300 |  |  | CCC[C@H](NC(=O)[C@@H]1Cc2cccc(c2)Oc2ccc(cc2)CCCC(=O)N[C@@H](C2CCCCC2)C(=O)N1)C(=O)C(=O)NCC(=O)N[C@H](C(=O)O)c1ccccc1
4 | 800 |  |  | CCC[C@H](NC(=O)[C@@H]1Cc2cccc(c2)Oc2ccc(cc2)C[C@H](NC(C)=O)C(=O)N[C@@H](C2CCCCC2)C(=O)N1)C(=O)C(=O)NCC(=O)N[C@H](C(=O)O)c1ccccc1
5 | 160 |  | 300 | CCC[C@H](NC(=O)[C@@H]1Cc2cccc(c2)Oc2ccc(cc2)CCCCC(=O)N[C@@H](C2CCCCC2)C(=O)N1)C(=O)C(=O)NCC(=O)N[C@H](C(=O)O)c1ccccc1
6 | 7800 |  |  | CCC[C@H](NC(=O)[C@@H]1Cc2cccc(c2)Oc2ccc(cc2)C[C@H](NC(=O)OC(C)(C)C)C(=O)N[C@@H](C2CCCCC2)C(=O)N1)C(=O)C(=O)NCC(=O)N[C@H](C(=O)O)c1ccccc1

Source: ChEMBL document CHEMBL1140351, “Design and synthesis of depeptidized macrocyclic inhibitors of hepatitis C NS3-4A protease using structure-based drug design” (J Med Chem, 2005)
